ChEMBL document CHEMBL1136098, “Semisynthetic preparation of amentoflavone: A negative modulator at GABA(A) receptors” (Bioorg Med Chem Lett, 2003)

How the values were obtained:
[1] = biological target: GABA-A receptor; anion channel; assay: Binding affinity for human cloned GABA-A benzodiazepine receptor; assay type: protein-complex assay
[2] = biological target: Delta-type opioid receptor (Sus scrofa, UniProt P79291); assay: Binding affinity (in vitro) against Opioid receptor delta 1 using radio-ligand binding assay
Delta-type opioid receptor, sequence (P79291 whole entry): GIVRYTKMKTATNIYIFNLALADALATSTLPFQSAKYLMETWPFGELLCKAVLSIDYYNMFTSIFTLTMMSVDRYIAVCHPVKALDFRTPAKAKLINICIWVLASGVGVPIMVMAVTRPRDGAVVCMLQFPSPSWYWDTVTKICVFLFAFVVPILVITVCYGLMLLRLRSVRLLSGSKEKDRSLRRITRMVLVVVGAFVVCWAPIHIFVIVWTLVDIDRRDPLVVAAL

D(3) dopamine receptor = D(3) dopamine receptor (Homo sapiens, UniProt P35462); assay: Binding affinity (in vitro) against Dopamine receptor D3 using radio-ligand binding assay; design: species or system Sus scrofa
D(3) dopamine receptor, sequence (P35462 whole entry): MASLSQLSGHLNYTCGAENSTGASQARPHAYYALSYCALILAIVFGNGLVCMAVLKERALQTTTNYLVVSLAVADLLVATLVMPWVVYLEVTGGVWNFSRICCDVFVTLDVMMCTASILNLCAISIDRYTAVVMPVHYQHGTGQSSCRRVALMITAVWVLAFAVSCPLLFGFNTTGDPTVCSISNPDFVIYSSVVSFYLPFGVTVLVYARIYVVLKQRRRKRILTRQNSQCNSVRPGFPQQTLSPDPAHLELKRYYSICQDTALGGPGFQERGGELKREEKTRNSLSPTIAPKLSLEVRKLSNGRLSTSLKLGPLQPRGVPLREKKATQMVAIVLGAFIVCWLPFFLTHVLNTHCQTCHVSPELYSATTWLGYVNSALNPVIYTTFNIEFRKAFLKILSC

[3] = biological target: 5-hydroxytryptamine receptor 1D (Sus scrofa, UniProt P79400); assay: Binding affinity (in vitro) against 5-hydroxytryptamine 1D receptor alpha using radio-ligand binding assay
5-hydroxytryptamine receptor 1D, sequence (P79400 whole entry): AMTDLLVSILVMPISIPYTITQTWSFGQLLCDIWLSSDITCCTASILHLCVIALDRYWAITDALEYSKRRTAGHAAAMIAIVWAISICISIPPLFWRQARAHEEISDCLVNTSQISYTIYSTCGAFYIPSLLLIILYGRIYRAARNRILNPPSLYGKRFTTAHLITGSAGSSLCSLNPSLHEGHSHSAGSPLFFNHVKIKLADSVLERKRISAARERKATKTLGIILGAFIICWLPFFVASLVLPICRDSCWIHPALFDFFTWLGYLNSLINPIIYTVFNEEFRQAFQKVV

[4] = biological target: T1, GABA-A receptor; alpha-1/beta-2/gamma-2 (Homo sapiens, UniProt P14867+P18507+P47870); assay: Effective concentration against human recombinant GABA-A receptor alpha-1-beta-2-gamma-2 subunits expressed in Xenopus oocytes; assay type: cell-based, Oocyte
T1 sequence (P14867 whole entry): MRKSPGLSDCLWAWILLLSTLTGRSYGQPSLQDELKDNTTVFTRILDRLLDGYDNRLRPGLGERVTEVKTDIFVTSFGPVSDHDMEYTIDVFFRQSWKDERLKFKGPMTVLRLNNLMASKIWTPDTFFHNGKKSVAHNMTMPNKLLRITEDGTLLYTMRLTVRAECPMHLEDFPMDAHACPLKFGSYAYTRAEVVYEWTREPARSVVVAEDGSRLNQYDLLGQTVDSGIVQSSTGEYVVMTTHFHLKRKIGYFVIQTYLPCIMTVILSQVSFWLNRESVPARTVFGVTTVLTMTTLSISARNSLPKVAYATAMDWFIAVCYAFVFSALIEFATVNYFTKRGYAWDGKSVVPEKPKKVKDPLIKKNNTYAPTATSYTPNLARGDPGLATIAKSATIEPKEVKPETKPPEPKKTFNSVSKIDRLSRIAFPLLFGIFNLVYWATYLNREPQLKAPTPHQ
T1 sequence (P47870 whole entry): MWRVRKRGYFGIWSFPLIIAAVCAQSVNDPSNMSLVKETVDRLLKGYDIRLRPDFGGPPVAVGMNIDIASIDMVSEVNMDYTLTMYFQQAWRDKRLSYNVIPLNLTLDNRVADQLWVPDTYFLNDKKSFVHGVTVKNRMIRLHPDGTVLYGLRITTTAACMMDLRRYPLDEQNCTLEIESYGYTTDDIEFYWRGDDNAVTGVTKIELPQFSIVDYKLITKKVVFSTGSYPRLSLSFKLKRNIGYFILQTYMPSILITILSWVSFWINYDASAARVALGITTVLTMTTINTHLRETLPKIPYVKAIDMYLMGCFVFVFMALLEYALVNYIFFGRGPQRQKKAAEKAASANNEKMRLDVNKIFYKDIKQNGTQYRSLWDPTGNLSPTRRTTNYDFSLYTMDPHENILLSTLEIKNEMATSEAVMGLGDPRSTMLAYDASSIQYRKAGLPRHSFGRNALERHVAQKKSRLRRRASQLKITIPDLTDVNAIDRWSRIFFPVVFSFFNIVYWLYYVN
T1 sequence (P18507 whole entry): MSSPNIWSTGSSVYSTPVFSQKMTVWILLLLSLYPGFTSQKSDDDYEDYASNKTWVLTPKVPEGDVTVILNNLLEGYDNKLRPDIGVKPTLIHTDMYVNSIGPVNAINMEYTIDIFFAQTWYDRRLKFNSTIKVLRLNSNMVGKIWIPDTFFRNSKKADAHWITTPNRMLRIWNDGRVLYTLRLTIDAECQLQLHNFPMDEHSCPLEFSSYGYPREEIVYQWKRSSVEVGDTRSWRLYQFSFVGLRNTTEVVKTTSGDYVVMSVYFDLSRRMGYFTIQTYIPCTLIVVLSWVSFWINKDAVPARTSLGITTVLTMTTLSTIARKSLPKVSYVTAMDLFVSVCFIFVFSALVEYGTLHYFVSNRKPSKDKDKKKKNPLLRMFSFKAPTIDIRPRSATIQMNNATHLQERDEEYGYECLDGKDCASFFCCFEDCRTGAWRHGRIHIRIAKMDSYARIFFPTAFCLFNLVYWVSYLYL

[5] = biological target: GABA-A receptor; anion channel; assay: Inhibition of [3H]flunitrazepam binding to rat brain GABA-A benzodiazepine receptor
[6] = biological target: GABA-A receptor; anion channel; assay: Binding affinity for GABA-A benzodiazepine receptor; assay type: protein-complex assay

## O=c1cc(-c2ccc(O)c(-c3c(O)cc(O)c4c(=O)cc(-c5ccc(O)cc5)oc34)c2)oc2cc(O)cc(O)c12 [AMENTOFLAVONE]
[1]
  Ki: 6 nM
[2]
  Ki: 36.5 nM
D(3) dopamine receptor
  Ki: 1240 nM
[3]
  Ki: 4090 nM
[4]
  EC50: 3600 nM
[5]
  IC50: 14.9 nM
[6]
  Ki: 6 nM
